Assay type in all cases: physicochemical
The nature of series [1]: MT profiles of Eu(2)^- complex versus pH and saturation power. The conditions noted are these: saturating bound water at about 57 ppm; 62.5 mM, 2 s, 41 db. On the procedure:
In a seventh experiment, MT profiles were obtained for 62.5 mM aqueous solutions of the Eu(2)^− lanthanide-macrocylic complex. A saturating RF pulse of 2 s at the resonance frequency of bound water or amide protons, with a power of 41 db, was applied to a 3.5 cm volume coil. […] The same set of data was plotted versus the bound water lifetime, τM^298, or the exchange limiting regime, Δω•τM, as shown in FIG. 17. The largest MT occurs for a Δω•τM ranging from about 12 to about 17, and optimally about 15.

The nature of series [2]: pH dependence of bound water and amide proton lifetimes τM^298 of Eu(2)^- by variable temperature 1H NMR line width fitting. On the procedure: In a sixth series of experiments, the pH dependence of the bound water (FIG. 14) and the amide (FIG. 15) protons lifetimes, τM^298, were determined by variable temperature ^1H NMR line width fitting. The chemically exchangeable bound water and amide protons have different dependence on pH. For bound water protons, the slowest exchange, i.e., largest τM^298, takes place at pH 7 (FIG. 14). Moreover, the pH dependence may be divided into two linear ranges: an acidic range where τM^298=68.6*pH−172.5; and a basic range where τM^298=−128.2*pH+1212.6, respectively. For the amide protons, the slowest exchange is at pH 5.5 (FIG. 15).

Series [3] in a line: 500 MHz 1H NMR spectrum of Eu(2)^- complex, exchangeable sites. The conditions noted are these: aqueous, pH 7.4, 25° C. The text has this:
Two sites in the complex (denoted by the symbols *) are chemically exchangeable with bulk water (denoted by the symbol ? ): one is from Eu^3+-bound water at about 57 ppm, and another is from four equivalent amide protons on the pendent arms at about −6 ppm.

Series [4] is described as follows: Effect of saturation duration on MT with Yb(9)^3+ (bulk water 1H NMR). The conditions noted are these: 5 mM, pH 7.4, 25° C.; saturating pulse of about 2 s or longer centered between amide proton signals, bandwidth 1500 Hz. On the procedure:
An eleventh series of experiments was conducted to examine the effect of saturation duration on the magnitude of MT obtained using the Yb(9)^3+ complex. […] The upper series of spectra (a) were obtained while applying a saturating pulse of different duration and centered between the resonance signals of the exchangeable amide protons, with a saturating bandwidth of 1500 Hz. The saturating bandwidth was produced using conventional water elimination technique (i.e., a wet1d pulse sequence). See Varian User Manual; Varian NMR, Palo Alto, Calif.; User Guide, VNMR Version 6.1 software, 1997), incorporated herein by reference. The pulse sequence to produce saturation was modified to include hard loops to shape the pulse train (90° e-burp1, typically repeated from about 0 to about 500 times) with a bandwidth of 1500 Hz (pwwet=3.0 ms and wetpwr=28 db). The lower series (b) of spectra, shown inverted to facilitate comparison to series (a), were obtained while applying the same saturating pulse, but on the opposite side and equal distance away from the bulk water MR signal. As the illustrated in FIG. 26, for a saturating pulse of about 2 s or longer, about a 38% decrease in the bulk water signal was obtained for series (a).

Series [5] is described as follows: pH dependence of amide proton (Ha, Hb) lifetimes τM^298 and Δω•τM of Yb(9)^3+. The text has this:
As indicated by their linewidths, illustrated in FIG. 24, the two exchangeable amide sites have different dependences upon pH. As further illustrated in FIG. 25, Hb exchanges about 1.3 times faster than that of Ha. […] Similar to that discussed above for Ln(1)^3+, either too fast or too slow exchange may produce less MT. For the conditions used to obtain the data presented in Table 2, the maximum MT effect appear to be obtained for Ln(9)^3+ complexes when the exchange limiting regime is about 15.

Series [6] can be described thus: 1H NMR spectra of Ln(9)^3+ complexes, exchangeable amide protons. The text has this:
For certain Ln(9)^3+ complexes, for example, with Ln equal to Yb or Tm, the bound water molecules are ^1H NMR invisible probably due to the fast exchange between the bound water and the bulk water. […] Unfortunately, the NMR signal was invisible, probably due to its fast exchange with the bulk water. However, the eight exchangeable amide protons present as two resonance peaks with equivalent intensity, at −14.5 (Ha) and −17.7 (Hb) ppm, respectively, are visible.

Structures are written as SMILES.

As for `O=C([O-])CNC(=O)CN1CCN(CC(=O)NCC(=O)[O-])CCN(CC(=O)NCC(=O)[O-])CCN(CC(=O)NCC(=O)[O-])CC1.[Eu+3]` [Eu(2)^−, LnDOTA-4AmC^−], the “optimal Δω•τM for largest MT” value in series [1] was “about 15”. For the same compound, in series [2], the “pH of slowest exchange (largest τM^298), bound water protons” value was determined as 7 and the “pH of slowest exchange, amide protons” value worked out at 5.5. The “exchange limiting regimes (Δω•τM), bound water and amide protons” value in series [2] (magnetic field strength of 4.7) is given as greater than 1. Moreover, in series [3], the “chemical shift of Eu^3+-bound water” value is “about 57 ppm” and the “chemical shift of four equivalent amide protons on the pendent arms” value was “about −6 ppm”.
As to `NC(=O)CN1CCN(CC(N)=O)CCN(CC(N)=O)CCN(CC(N)=O)CC1.[Yb+3]` [Yb(9)^3+], the “decrease in the bulk water signal, series (a)” value in series [4] was roughly 38%. Further, in series [5], the “Hb exchanges faster than Ha” value is on record as “about 1.3 times”. In series [5] (7.05 T, broad range of pH values), the “exchange limiting regimes Δω•τM of both amide protons” value is recorded as greater than 1. Further, the “τM^298, Ha” value in series [5] (pH 6.46) worked out at 5.00 ms; in series [5] (pH 6.76), 2.30 ms; in series [5] (pH 7.06), 1.21 ms; in series [5] (pH 7.21), 0.92 ms; in series [5] (pH 7.43), 0.64 ms; in series [5] (pH 7.84) it was 0.57 ms. Moreover, the “τM^298, Hb” value in series [5] (pH 6.46) amounted to 4.00 ms; in series [5] (pH 6.76), 1.78 ms; in series [5] (pH 7.06), 0.82 ms; in series [5] (pH 7.21) it was 0.72 ms; in series [5] (pH 7.43) it was 0.52 ms; in series [5] (pH 7.84), 0.44 ms. The “Δω•τM^298, Ha” value is listed as 139.3 in series [5] (pH 6.46, 7.05 T); 64.1 in series [5] (pH 6.76, 7.05 T); 33.6 in series [5] (pH 7.06, 7.05 T); 25.5 in series [5] (pH 7.21, 7.05 T); 17.9 in series [5] (pH 7.43, 7.05 T); 15.9 in series [5] (pH 7.84, 7.05 T). The “Δω•τM^298, Hb” value in series [5] (pH 6.46, 7.05 T) was found to be 133.7; in series [5] (pH 6.76, 7.05 T), 59.5; in series [5] (pH 7.06, 7.05 T), 27.2; in series [5] (pH 7.21, 7.05 T), 24.2; in series [5] (pH 7.43, 7.05 T) it was 17.4; in series [5] (pH 7.84, 7.05 T), 14.7. Further, in series [6], the “chemical shift of amide protons, first set (Ha)” value is on record as −14.5 ppm. The “chemical shift of amide protons, second set (Hb)” value in series [6] is −17.7 ppm.

(Values after patent US20020127182A1, “Paramagnetic metal ion-based macrocylic magnetization transfer contrast agents and method of use” (Board of Regents, The University of Texas System, priority 2000, published 2002).)
